Results published in patent US8802597B2, “Herbicidal pyrimidines” (E I du Pont de Nemours and Company, priority 2003, dated 2014).

Experiments:
Experiment in all cases: Test C pre/postemergence
Format in all cases: in vivo
Conditions in all cases: Preemergence
[1] = system: goosegrass (Eleusine indica)
In short: (§1)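 Greenhouse pot test: seeds treated preemergence, or plants at 2–18 cm (1- to 4-leaf stage) treated postemergence, with compound in non-phytotoxic solvent plus surfactant. Visual rating versus untreated controls after 12–14 days, scale 0 (no effect) to 100 (complete control); dash means not tested.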

[2] = system: lambsquarters (Chenopodium album)
In short: as §1

corn (Zea mays) = system: corn (Zea mays)
In short: as §1

[3] = system: velvetleaf (Abutilon theophrasti)
In short: as §1

[4] = system: cocklebur (Xanthium strumarium)
In short: as §1

[5] = system: crabgrass (Digitaria sanguinalis)
In short: as §1

[6] = system: eastern black nightshade (Solanum ptycanthum)
In short: as §1

[7] = system: bermudagrass (Cynodon dactylon)
In short: as §1

[8] = 31 g ai/ha, scale 0 to 100, 0 no effect, 100 complete control
[9] = 62 g ai/ha, scale 0 to 100, 0 no effect, 100 complete control

Question: Which “Plant response rating, Goosegrass” value [1, 8] does the source give for `COC(=O)Cc1nc(C2CC2)nc(N)c1Br` [Compound 13] here?
Answer: The value was 0.

Question: What about the “Plant response rating, Goosegrass” value [1, 9] of the same molecule?
Answer: Its value is 0.

Question: What about the “Plant response rating, Goosegrass” value ([1]; 125 g ai/ha, scale 0 to 100) of the same molecule?
Answer: Its value is 0.

Question: What about the “Plant response rating, Goosegrass” value ([1]; 250 g ai/ha, scale 0 to 100) of the same molecule?
Answer: The value was 0.

Question: And the “Plant response rating, Lambsquarters” value [2, 8]?
Answer: Its value is 50.

Question: And the “Plant response rating, Lambsquarters” value [2, 9]?
Answer: The value was 85.

Question: What about the “Plant response rating, Lambsquarters” value ([2]; 125 g ai/ha, scale 0 to 100) of the same molecule?
Answer: The value was 90.

Question: What about the “Plant response rating, Lambsquarters” value ([2]; 250 g ai/ha, scale 0 to 100) of the same molecule?
Answer: Its value is 90.

Question: What about the “Plant response rating, Corn” value (corn (Zea mays); [8]) of the same molecule?
Answer: Its value is 0.

Question: What about the “Plant response rating, Corn” value (corn (Zea mays); [9]) of the same molecule?
Answer: The value was 5.

Question: What about the “Plant response rating, Corn” value (corn (Zea mays); 125 g ai/ha, scale 0 to 100) of the same molecule?
Answer: Its value is 10.

Question: And the “Plant response rating, Corn” value (corn (Zea mays); 250 g ai/ha, scale 0 to 100)?
Answer: Its value is 30.

Question: What about the “Plant response rating, Velvetleaf” value [3, 8] of the same molecule?
Answer: The value was 60.

Question: And the “Plant response rating, Velvetleaf” value [3, 9]?
Answer: Its value is 60.

Question: What about the “Plant response rating, Velvetleaf” value ([3]; 125 g ai/ha, scale 0 to 100) of the same molecule?
Answer: Its value is 80.

Question: And the “Plant response rating, Velvetleaf” value ([3]; 250 g ai/ha, scale 0 to 100)?
Answer: The value was 90.

Question: And the “Plant response rating, Cocklebur” value [4, 8]?
Answer: Its value is 40.

Question: What about the “Plant response rating, Cocklebur” value [4, 9] of the same molecule?
Answer: The value was 60.

Question: What about the “Plant response rating, Cocklebur” value ([4]; 125 g ai/ha, scale 0 to 100) of the same molecule?
Answer: Its value is 90.

Question: And the “Plant response rating, Cocklebur” value ([4]; 250 g ai/ha, scale 0 to 100)?
Answer: Its value is 95.

Question: And the “Plant response rating, Crabgrass” value [5, 8]?
Answer: Its value is 0.

Question: And the “Plant response rating, Crabgrass” value [5, 9]?
Answer: The value was 0.

Question: What about the “Plant response rating, Crabgrass” value ([5]; 125 g ai/ha, scale 0 to 100) of the same molecule?
Answer: Its value is 0.

Question: And the “Plant response rating, Crabgrass” value ([5]; 250 g ai/ha, scale 0 to 100)?
Answer: Its value is 0.

Question: And the “Plant response rating, Nightshade” value [6, 8]?
Answer: Its value is 0.

Question: What about the “Plant response rating, Nightshade” value [6, 9] of the same molecule?
Answer: Its value is 0.

Question: What about the “Plant response rating, Nightshade” value ([6]; 125 g ai/ha, scale 0 to 100) of the same molecule?
Answer: The value was 90.

Question: And the “Plant response rating, Nightshade” value ([6]; 250 g ai/ha, scale 0 to 100)?
Answer: Its value is 90.

Question: What about the “Plant response rating, Bermudagrass” value [7, 8] of the same molecule?
Answer: Its value is 0.

Question: What about the “Plant response rating, Bermudagrass” value [7, 9] of the same molecule?
Answer: Its value is 0.

Question: What about the “Plant response rating, Bermudagrass” value ([7]; 125 g ai/ha, scale 0 to 100) of the same molecule?
Answer: Its value is 0.

Question: What about the “Plant response rating, Bermudagrass” value ([7]; 250 g ai/ha, scale 0 to 100) of the same molecule?
Answer: Its value is 0.
